In ChEMBL document CHEMBL1201862, “PubChem BioAssay data set” (2004):
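Each compound was tested at five concentrations against cells in 96-well plates for 48 hours. Abbreviation: GI50, concentration required for 50% inhibition of growth.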 Calls of active or inactive are those of the source. No stated cut-off is given here; in the data, active = GI50 up to about 1.1 µM and inactive = higher.

Columns and labels:
Experiment in all cases: NCI anticancer screen, dose series, 48 h
[1] = test system: OVCAR-5
[2] = test system: RPMI-8226
[3] = test system: CAKI-1
[4] = test system: K562
[5] = test system: M14
[6] = test system: Hs-578T
[7] = test system: MDA-MB-231
[8] = test system: UO-31
[9] = test system: HT-29
[10] = test system: SF-268
[11] = test system: IGROV-1
[12] = test system: SR
[13] = test system: OVCAR-4
[14] = test system: SF-539
[15] = test system: NCI-H226
[16] = test system: T47D
[17] = test system: SK-MEL-2
[18] = test system: DU-145
[19] = test system: SW-620
[20] = test system: SK-OV-3

Row | Structure (SMILES) | GI50 [1] | GI50 [2] | GI50 [3] | GI50 [4] | GI50 [5] | GI50 [6] | GI50 [7] | GI50 [8] | GI50 [9] | GI50 [10] | GI50 [11] | GI50 [12] | GI50 [13] | GI50 [14] | GI50 [15] | GI50 [16] | GI50 [17] | GI50 [18] | GI50 [19] | GI50 [20]
1 | CC(Oc1ccccc1)C(=O)NNC(=O)OC(C)(C)C (stereo not given) | > 100 µM (inactive) | > 100 µM (inactive) | > 100 µM (inactive) | > 100 µM (inactive) | > 100 µM (inactive) | > 100 µM (inactive) | > 100 µM (inactive) | > 100 µM (inactive) | > 100 µM (inactive) | > 100 µM (inactive) | > 100 µM (inactive) | > 100 µM (inactive) | > 100 µM (inactive) | > 100 µM (inactive) | > 100 µM (inactive) | > 100 µM (inactive) | > 100 µM (inactive) | > 100 µM (inactive) | > 100 µM (inactive) | > 100 µM (inactive)
2 | COc1ccc(/C=C2\CCCC(CN(C)C)C2=O)cc1 (stereo not given) | 9.08 µM (inactive) | 0.223 µM (active) | 1.69 µM (inactive) | 1.24 µM (inactive) | 1.72 µM (inactive) | 3.02 µM (inactive) | 3.03 µM (inactive) | 3.63 µM (inactive) | 1.75 µM (inactive) | 3.03 µM (inactive) | 2.69 µM (inactive) | 1.02 µM (active) | 1.76 µM (inactive) | 14.9 µM (inactive) | 18.1 µM (inactive) | 2.17 µM (inactive) | 3.36 µM (inactive) | 16.6 µM (inactive) | 0.891 µM (active) | 9.89 µM (inactive)
3 | COc1ccc2c(c1)C=C([N+](=O)[O-])C(C1OC(C)(C)OC1C1COC(C)(C)O1)O2 (stereo not given) | 8.04 µM (inactive) | 1.67 µM (inactive) | 4.51 µM (inactive) | 1.44 µM (inactive) | 2.07 µM (inactive) | 4.18 µM (inactive) | 2.36 µM (inactive) | 13.1 µM (inactive) | 1.97 µM (inactive) | 3.5 µM (inactive) | 14.6 µM (inactive) | 1.55 µM (inactive) | 8.17 µM (inactive) | 5.66 µM (inactive) | 14.6 µM (inactive) | 12 µM (inactive) | 1.87 µM (inactive) | 16 µM (inactive) | 2.26 µM (inactive) | 11 µM (inactive)
4 | O=C1c2ccccc2C(=O)c2sc(Nc3ccccc3Cl)nc21 | 19.8 µM (inactive) | 3.68 µM (inactive) | 4.06 µM (inactive) | 2.8 µM (inactive) | 5.36 µM (inactive) | 11.1 µM (inactive) | 3.78 µM (inactive) | 10.6 µM (inactive) | 21.5 µM (inactive) | 9.29 µM (inactive) | 13.9 µM (inactive) | 3.93 µM (inactive) | 8.18 µM (inactive) | 15.8 µM (inactive) | 5.56 µM (inactive) | 11.1 µM (inactive) | 13.6 µM (inactive) | 17.6 µM (inactive) | 4.15 µM (inactive) | 19.5 µM (inactive)
5 | CC(C)c1c(O)ccc2c1CCC1C(C)(C)CCCC21C (stereo not given) | 14.6 µM (inactive) | 22.9 µM (inactive) | 16.3 µM (inactive) | 21.6 µM (inactive) | 16.2 µM (inactive) | 26.7 µM (inactive) | 19 µM (inactive) | 17.4 µM (inactive) | 16.9 µM (inactive) | 19.9 µM (inactive) | 16.3 µM (inactive) | 19.5 µM (inactive) | 17.5 µM (inactive) | 18.7 µM (inactive) | 17.7 µM (inactive) | 0.0173 µM (active) | 16.7 µM (inactive) | 14.8 µM (inactive) | 20 µM (inactive) | 18.9 µM (inactive)
6 | CC1CN1C(=O)NCCCCCCNC(=O)N1CC1C (stereo not given) | > 100 µM (inactive) | > 100 µM (inactive) | 48.4 µM (inactive) | > 97.5 µM (inactive) | 68.2 µM (inactive) | > 100 µM (inactive) | > 100 µM (inactive) | 79.4 µM (inactive) | > 100 µM (inactive) | 29.8 µM (inactive) | > 100 µM (inactive) | 3.11 µM (inactive) | > 100 µM (inactive) | 35 µM (inactive) | > 75.7 µM (inactive) | > 73.1 µM (inactive) | > 100 µM (inactive) | 22.2 µM (inactive) | > 100 µM (inactive) | 66.5 µM (inactive)
7 | CC(C)OP(=O)(CCCCCCCCC/C=C/c1ccc2c(c1)OCCOCCOCCOCCO2)OC(C)C | 3.42 µM (inactive) | 1.41 µM (inactive) | 3.51 µM (inactive) | 6.37 µM (inactive) | 3.52 µM (inactive) | 2.45 µM (inactive) | 2.85 µM (inactive) | 2.72 µM (inactive) | 3.05 µM (inactive) | 3.8 µM (inactive) | 4.46 µM (inactive) | 4.22 µM (inactive) | 4.8 µM (inactive) | 2.62 µM (inactive) | 3.37 µM (inactive) | 2.79 µM (inactive) | 2.96 µM (inactive) | 4.59 µM (inactive) | 3.82 µM (inactive) | 3.19 µM (inactive)
